Test results as given in patent US11957661B2, “JAK1 pathway inhibitors for the treatment of vitiligo” (Incyte Corporation, priority 2020, dated 2024).

Key:
Format in all cases: cell-based
[1] = test system: Normal Human Melanocytes; assay: Melanocyte proliferation assay with 20% CD8+ T cell conditioned media
Experimental: The assay investigates an in vitro system using CD8+ T Cells and melanocytes. The assay tests whether Compound 1 modulates the inflammatory response and how such modulation affects melanocyte biology.
(§1) Methods: CD8+ T cell Conditioned Media Step: Normal Human CD8+ T Cells from peripheral blood were purchased ([…] Technologies). They were cultured for 48 hours at 37 C and 5% CO2 under activating and unactivating conditions inside the Incucyte Live-Cell Analysis System (Essen Bioscience). Activated T cells were cultured in a flat bottom 96 well plate (Costar) that was first coated with 10 ug/ml anti-CD3 (BD Biosciences) for 2 hours at room temperature and then washed one time with PBS before cells were added. They were grown in Melanocyte Growth Medium (NHM-GM, MatTek) containing 1 ug/ml anti-CD28 (BD Biosciences). Unactivated T cells were treated the same way except that they were cultured in a separate plate without anti-CD3 and anti-CD28. Each T cell plate was treated at seeding with Compound 1 (1000, 100, or 10 nM) or media alone. Each treatment was done in triplicate. After 48 hours, all the samples (T cells and media) were transferred to new V-bottom plates and centrifuged at 1300 RPMs for 10 minutes. Supernatants were collected from the T cell pellets carefully to not disturb the pellet. The supernatants (CD8+ T cell Conditioned Media) used fresh to treat the melanocyte. The remaining amounts were stored at −80 C and then thawed for protein analysis by Luminex technology (custom Procarta 45-plex, Thermo Fisher Scientific). The treated CD8+ T cell pellets were lysed using the Quantigene sample processing kit reagents following the kit instructions. Lysates were stored at −80 C and then thawed for RNA analysis by Luminex technology using two custom Quantigene 80-Plexes—150 targeted genes total (Thermo Fisher Scientific).
(§2) Melanocyte Proliferation Step: Normal Human Melanocytes isolated from a donor's neonatal foreskin epidermis were purchased (MatTek). They were thawed and seeded following manufacturer's instruction in NHM-GM media in flat bottom 96 well plates (Costar) for 18 hours at 37 C and 5% CO2. They were approximately 10% confluent when treated with 20% CD8+ T cell Conditioned Media (25 ul Conditioned media added to 100 ul of NHM-GM already in the wells). They were cultured for 48 hours at 37 C and 5% CO2 inside the Incucyte Live-Cell Analysis System (Essen Bioscience) with 5 images per well taken every 3 hrs. After 48 hours, all the supernatants were transferred from the melanocyte plates to new V-bottom plates and centrifuged at 1300 RPMs for 10 minutes. Supernatants were collected and were stored at −80 C and then thawed for protein analysis by Luminex technology (custom Procarta 45-plex, Thermo Fisher Scientific). The treated melanocytes were lysed using the Quantigene sample processing kit reagents following the kit instructions. Lysates were stored at −80 C and then thawed for RNA analysis by Luminex technology using two custom Quantigene 80-Plexes for a total of 150 targeted genes (Thermo Fisher Scientific). Incucyte images were analyzed using the Incucyte software and the percentage of melanocyte confluence was determined for each treatment.
The assay investigates an in vitro system using CD8+ T Cells and melanocytes. The assay tests whether ruxolitinib modulates the inflammatory response and how such modulation affects melanocyte biology. […]

[2] = test system: CD3/CD28-activated human CD8+ T cells; assay: Protein analysis (Luminex) of CD8+ T cell conditioned media
Experimental: as §1
as §1, with “ruxolitinib” for “Compound 1”

[3] = test system: Normal Human Melanocytes; assay: Protein analysis (Luminex) of melanocyte media after 20% CD8+ T cell conditioned media
Experimental: as §2

[4] = co-cultured with CD3/CD28-activated human CD8+ T cells

Cc1n[nH]c(C)c1-c1cnn(C2(CC#N)CN(c3cc(F)c(C(=O)N[C@@H](C)C(F)(F)F)cc3F)C2)c1 [Compound 1, 4-[3-(cyanomethyl)-3-(3′,5′-dimethyl-1H,1′H-4,4′-bipyrazol-1-yl)azetidin-1-yl]-2,5-difluoro-N-[(1S)-2,2,2-trifluoro-1-methylethyl]benzamide]
suppressed melanocyte proliferation response ([1]; 1000 nM co-cultured with CD3/CD28-activated human CD8+ T cells, 20% conditioned media): partially reversed | spontaneous proliferation compared to the natural melanocyte proliferation rate ([1]; added to the inflammatory culture media, time-dependent): significant reduction | melanocyte proliferation (% confluence) ([1]; following transfer of 20% unactivated T cell media): does not directly alter | LIF, T cells ([2]; T cell data): on-target inhibition | additional mediators not obligated to use JAK1 signaling (growth factors and chemokine), protein T cell media [2, 4]: reduced | inflammatory cytokines that are JAK-STAT dependent, protein T cell media [2, 4]: inhibits | increase of IL-8 ([3]; melanocyte culture): ~450% | reduction of HGF levels ([3]; melanocyte culture supernatants after activated T cell conditioned media): ~67% | inflammatory cytokines that are JAK-STAT dependent, protein melanocyte media ([3]; melanocytes treated with activated T cell conditioned media): reduces | IL-8, protein melanocyte media ([3]; melanocytes under stress conditions): increased
